# Data: US8927033B2, “Hyperlipemia-ameliorating agent, anemia-ameliorating composition, uric-acid-level-reducing composition, and food or beverage” (Lion Corporation, priority 2009, dated 2015)
# Test system: Type 2-diabetes model mice KK-Ay/Ta Jc1
# Experiment: Study on hyperlipemia-ameliorating effects (plasma neutral fat, total cholesterol, free fatty acid, visceral fat, body weight)
# Assay type: in vivo
# Conditions: for Body weight (average g/±SD) / Neutral fat level (average mg/dL ± SD) / Free fatty acid level (average mEq/L ± SD) / Total cholesterol level (average mg/dL ± SD) / Visceral fat level (average g ± SD): 0.05% by mass in feed CE2, 5 days; for Body weight (average g/±SD) / Neutral fat level (average mg/dL ± SD): overnight fast; for Body weight (average g/±SD): control group 52.3 ± 4.2; for cholesterol level-regulating effect compared with the control group / free fatty acid level-regulating effect compared with the control group / reduction in body weight compared with the control group / reduction in the visceral fat level compared with the control group / neutral fat level-regulating effect compared with the control group: in words, 0.05% (aglycons) or 1.0% by mass (products) in feed, 5 days; for neutral fat level-regulating effect compared with the control group: Dunnett's test; for Neutral fat level (average mg/dL ± SD) / Free fatty acid level (average mEq/L ± SD) / Total cholesterol level (average mg/dL ± SD): plasma; for Neutral fat level (average mg/dL ± SD): control group 407.3 ± 20.9; for Free fatty acid level (average mEq/L ± SD): control group 1.95 ± 0.3; for Total cholesterol level (average mg/dL ± SD): control group 195.5 ± 10.7; for Visceral fat level (average g ± SD): retroperitoneal + epididymal + perirenal fat, control group 8.2 ± 1.0
# Text: Protopanaxatriol (PPT) (product of Funakoshi Corporation), panaxatriol (PT) (product of Funakoshi Corporation), protopanaxadiol (PPD) (product of Funakoshi Corporation) and panaxadiol (PD) (product of Funakoshi Corporation) were each added to feed CE2 (product of CLEA Japan, Inc.) so that the concentration thereof was 0.05% by mass.
# Similarly, the strong acid-treated Panax notoginseng product (Production Example 1) and Panax notoginseng powder (product of MATSUURA YAKUGYO CO., LTD.) were each added to feed CE2 (product of CLEA Japan, Inc.) so that the concentration thereof was 1.0% by mass.
# Feed CE2 (product of CLEA Japan, Inc.) containing no other additives was used as feed for the control group.
# Type 2-diabetes model mice KK-Ay/Ta Jc1 (male, 4 weeks old, 8 mice/group, product of CLEA Japan, Inc.) were preliminarily bred for 7 days. Thereafter, they were bred for 5 days with the above-prepared feed CE2, containing no other additives or containing PPT, PT, PPD, PD, the strong acid-treated Panax notoginseng product or Panax notoginseng powder.
# The mice bred for 5 days in the above-described manner were measured for the body weight after an overnight fast. The blood was collected from them. The collected blood sample was used to measure the plasma neutral-fat level with […] (product of Wako Pure Chemical Industries, Ltd.), the plasma total-cholesterol level with CHOLESTEROL E-TEST WAKO (product of Wako Pure Chemical Industries, Ltd.) and the plasma free-fatty-acid level with […] (product of Wako Pure Chemical Industries, Ltd.). In addition, retroperitoneal fat, fat surrounding the epididymis, and fat surrounding the kidney were sampled and weighed. The total mass thereof was used as the visceral fat level. The above-measured plasma neutral-fat level, plasma total-cholesterol level, plasma free-fatty-acid level, visceral fat level and body weight were verified using the Dunnett's multiple test. A p value of 0.05 or lower was considered statistically significant.
SMILES,Body weight (average g/±SD),cholesterol level-regulating effect compared with the control group,free fatty acid level-regulating effect compared with the control group,reduction in body weight compared with the control group,reduction in the visceral fat level compared with the control group,neutral fat level-regulating effect compared with the control group,Neutral fat level (average mg/dL ± SD),Free fatty acid level (average mEq/L ± SD),Total cholesterol level (average mg/dL ± SD),Visceral fat level (average g ± SD)
"CC1(C)CCC[C@](C)([C@H]2CC[C@]3(C)[C@@H]2[C@H](O)C[C@@H]2[C@@]4(C)CC[C@H](O)C(C)(C)[C@@H]4[C@@H](O)C[C@]23C)O1 [PT, panaxatriol]",43.9 ± 2.8 g,significantly superior to that of the control group,significantly superior to that of the control group,significant reduction in body weight,significant reduction in the visceral fat level,significantly superior to that of the control group,163 ± 32.8 mg/dL,0.84 ± 0.07 mEq/L,102.9 ± 16.7 mg/dL,–
"CC1(C)CCC[C@](C)([C@H]2CC[C@]3(C)[C@@H]2[C@H](O)C[C@@H]2[C@@]4(C)CC[C@H](O)C(C)(C)[C@@H]4CC[C@]23C)O1 [PD, panaxadiol]",47.3 ± 1.9 g,significantly superior to that of the control group,significantly superior to that of the control group,significant reduction in body weight,significant reduction in the visceral fat level,significantly superior to that of the control group,180.7 ± 34.2 mg/dL,1.04 ± 0.12 mEq/L,101.5 ± 15.6 mg/dL,5.5 ± 1.6 g
"CC(C)=CCCC(C)(O)[C@H]1CC[C@]2(C)[C@@H]1[C@H](O)C[C@@H]1[C@@]3(C)CC[C@H](O)C(C)(C)[C@@H]3CC[C@]12C (stereo in doubt) [PPD, protopanaxadiol]",46.8 ± 2.6 g,significantly superior to that of the control group,significantly superior to that of the control group,significant reduction in body weight,significant reduction in the visceral fat level,significantly superior to that of the control group,151.4 ± 26.9 mg/dL,0.81 ± 0.08 mEq/L,123.2 ± 19.6 mg/dL,5.9 ± 1.3 g
"CC(C)=CCC[C@](C)(O)[C@H]1CC[C@]2(C)[C@@H]1[C@H](O)C[C@@H]1[C@@]3(C)CC[C@H](O)C(C)(C)[C@@H]3[C@@H](O)C[C@]12C [PPT, Protopanaxatriol]",45.3 ± 2.2 g,significantly superior to that of the control group,significantly superior to that of the control group,significant reduction in body weight,significant reduction in the visceral fat level,significantly superior to that of the control group,138.5 ± 25.3 mg/dL,0.93 ± 0.08 mEq/L,128.3 ± 17.8 mg/dL,5.5 ± 1.3 g
